Experimental data reported in patent publication US20120207729A1, “SUBSTITUTED BENZOAZOLE PDE4 INHIBITORS FOR TREATING PULMONARY AND CARDIOVASCULAR DISORDERS” (DECODE GENETICS EHF, priority 2007, published 2012).

Assays:
[1] = molecular target: human PDE4B (Homo sapiens, UniProt Q07343); assay: In-vitro real-time enzyme-coupled spectrophotometric assay for PDE4 enzymes; type: biochemical; conditions: NADH-coupled assay, absorbance at 340 nm, read-out: IC50 for human PDE4B isozyme
Protocol: (§1) In-vitro assay for PDE4 enzymes. The in-vitro activity of PDE4 enzymes and the in-vitro potency of therapeutic agents described in the present invention was measured using a real-time, enzyme-coupled spectrophotometric assay. By using three different coupling enzymes, the product of the PDE4 reaction is coupled to the oxidation of the reduced form β-nicotinamide adenine dinucleotide (NADH), which dissipation can be monitored spectrophotmetrically at […].
(§2) Assay description. Buffer A containing 50 mM Tris, pH 8.0, 16 mM MgCl2 and 80 mM KCl is prepared and stored at room temperature. Buffer B containing 50 mM Tris, pH 8.0 is prepared and stored at room temperature. Stock solutions of the following reagents are prepared in Buffer B and stored at −20° C.: Adenosine-5′-triphosphate (ATP), cyclic adenosine-5′-monophosphate (cAMP), phosphoenolpyruvate (PEP) and NADH. An assay mix is prepared by mixing Buffer A, […] (TCEP), ATP, PEP, NADH, myokinase (MK), pyruvate kinase (PK), lactate dehydroganese (LDH) and PDE4 to a final volume of 20 mL, which is enough for a single 96-well assay plate. Assay mix (180 μL) and test article (10 μL) in 1:1 DMSO/H2O mixture is pre-incubated at room temperature for 10 min. The enzymatic reaction is initiated by addition of cAMP (10 μL). Final concentration of all components in the assay (200 μL/well) are as follows: 10 mM MgCl2, 50 mM KCl, 5 mM TCEP, 2.5% DMSO, 0.4 mM NADH, 1 mM PEP, 0.04 mM ATP, 5 units MK, 1 unit PK, 1 unit LDH and appropriate amount of PDE4. Reaction progress curves are monitored in a plate reader capable of measuring light absorbance at 340 nm. A decrease in light absorbance at 340 nm is due to oxidation of NADH. Positive controls containing no test article and negative controls containing no test article and no cAMP are included on every assay plate. Reaction rates are determined from the slopes of the linear portions of the progress curves. All data is percent normalized with respect to controls and presented as percent inhibition. Compounds BB-01, BB-02, BB-03, BB-04, BB-05, BB-08, BB-09 gave IC50<5 uM for human PDE4D and PDE4B isozymes.

[2] = molecular target: human PDE4D (Homo sapiens, UniProt Q08499); assay: as above; type: biochemical; conditions: NADH-coupled assay, absorbance at 340 nm, read-out: IC50 for human PDE4D isozyme
Protocol: as §1, §2

Chain of human PDE4B (Q07343 whole entry): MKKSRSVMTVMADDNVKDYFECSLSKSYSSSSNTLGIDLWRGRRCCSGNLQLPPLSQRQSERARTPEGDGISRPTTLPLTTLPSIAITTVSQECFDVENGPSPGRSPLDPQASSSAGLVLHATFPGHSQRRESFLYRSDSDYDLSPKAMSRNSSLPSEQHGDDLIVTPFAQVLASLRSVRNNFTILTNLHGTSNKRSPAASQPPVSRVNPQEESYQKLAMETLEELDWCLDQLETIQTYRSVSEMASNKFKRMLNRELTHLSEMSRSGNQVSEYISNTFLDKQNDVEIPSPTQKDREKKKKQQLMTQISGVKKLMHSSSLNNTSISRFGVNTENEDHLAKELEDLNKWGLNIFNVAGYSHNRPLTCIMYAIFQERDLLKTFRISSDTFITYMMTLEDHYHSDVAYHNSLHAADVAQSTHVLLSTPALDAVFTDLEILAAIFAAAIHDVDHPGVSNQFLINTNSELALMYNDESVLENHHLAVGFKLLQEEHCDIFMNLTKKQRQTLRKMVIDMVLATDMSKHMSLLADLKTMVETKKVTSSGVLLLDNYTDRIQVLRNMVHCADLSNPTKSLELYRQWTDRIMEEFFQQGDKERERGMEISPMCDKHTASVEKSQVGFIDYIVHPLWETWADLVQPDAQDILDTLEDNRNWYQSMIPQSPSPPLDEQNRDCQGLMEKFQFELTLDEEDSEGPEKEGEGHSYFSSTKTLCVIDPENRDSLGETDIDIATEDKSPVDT
Chain of human PDE4D (Q08499 whole entry): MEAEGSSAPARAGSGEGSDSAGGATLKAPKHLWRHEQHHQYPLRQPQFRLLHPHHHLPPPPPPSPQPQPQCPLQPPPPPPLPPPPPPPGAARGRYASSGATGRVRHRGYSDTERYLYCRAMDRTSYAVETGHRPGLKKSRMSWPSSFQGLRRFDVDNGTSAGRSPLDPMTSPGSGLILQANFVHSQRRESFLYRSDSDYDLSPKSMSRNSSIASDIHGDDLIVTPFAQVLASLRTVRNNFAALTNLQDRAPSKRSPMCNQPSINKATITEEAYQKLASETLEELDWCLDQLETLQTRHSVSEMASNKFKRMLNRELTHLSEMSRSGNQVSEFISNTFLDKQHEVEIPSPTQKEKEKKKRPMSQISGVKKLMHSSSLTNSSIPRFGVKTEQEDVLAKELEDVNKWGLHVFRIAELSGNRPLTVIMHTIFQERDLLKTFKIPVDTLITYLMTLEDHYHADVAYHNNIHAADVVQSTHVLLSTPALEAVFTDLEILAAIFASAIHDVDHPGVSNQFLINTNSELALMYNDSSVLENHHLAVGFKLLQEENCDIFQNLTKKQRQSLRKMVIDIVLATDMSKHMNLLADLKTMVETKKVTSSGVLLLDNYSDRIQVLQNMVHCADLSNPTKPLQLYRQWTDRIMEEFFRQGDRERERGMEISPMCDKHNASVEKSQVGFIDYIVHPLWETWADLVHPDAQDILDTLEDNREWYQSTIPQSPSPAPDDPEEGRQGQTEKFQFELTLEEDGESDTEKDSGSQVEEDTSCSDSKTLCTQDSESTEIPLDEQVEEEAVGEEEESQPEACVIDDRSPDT

SMILES	IC50 [1] [µM]	IC50 [2] [µM]
O=C(O)C1CCN1c1ccc(Cc2cc3scnc3c(-c3cccc(Cl)c3)c2F)cn1 (racemic) [BB-01, 1-{5-[4-(3-chloro-phenyl)-5-fluorobenzothiazol-6-ylmethyl]-pyridin-2-yl}-azetidine-2-carboxylic acid]	< 5	< 5
O=C(O)[C@@H]1CCCN1c1ccc(Cc2cc3scnc3c(-c3cccc(Cl)c3)c2F)cn1 [BB-03, (S)-1-{5-[4-(3-chloro-phenyl)-5-fluoro-benzothiazol-6-ylmethyl]-pyridin-2-yl}-pyrrolidine-2-carboxylic acid]	< 5	< 5
O=C(O)[C@@H]1CCN1c1ccc(Cc2cc3scnc3c(-c3cccc(Cl)c3)c2F)cn1 [BB-04, (S)-1-{5-[4-(3-chloro-phenyl)-5-fluoro-benzothiazol-6-ylmethyl]-pyridin-2-yl}-azetidine-2-carboxylic acid]	< 5	< 5

Other lines, results leading:

IC50 [1] [µM]	IC50 [2] [µM]	SMILES
< 5	< 5	O=C(O)[C@H]1CCN1c1ccc(Cc2cc3scnc3c(-c3cccc(Cl)c3)c2F)cn1 [BB-05, (R)-1-{5-[4-(3-chloro-phenyl)-5-fluoro-benzothiazol-6-ylmethyl]-pyridin-2-yl}-azetidine-2-carboxylic acid]
< 5	< 5	Cc1nc2c(-c3cccc(Cl)c3)cc(Cc3ccc(N4CC[C@H]4C(=O)O)nc3)cc2s1 [BB-08, (S)-1-{5-[4-(3-chloro-phenyl)-2-methyl-benzothiazol-6-ylmethyl]-pyridin-2-yl}-azetidine-2-carboxylic acid]
< 5	< 5	Cc1nc2c(-c3cccc(Cl)c3)cc(Cc3ccc(N4CC[C@@H]4C(=O)O)nc3)cc2s1 [BB-09, (R)-1-{5-[4-(3-chloro-phenyl)-2-methyl-benzothiazol-6-ylmethyl]-pyridin-2-yl}-azetidine-2-carboxylic acid]
